# What was measured:
# [1] = system: cancer cells HeLa and 4T1 and normal cells HEK293; experiment: Selectivity for tumor cells (red fluorescence intensity in cancer vs normal cells); format: cell-based; settings: 4T1 vs HEK293, 1 μM, 30 min; for fluorescence intensity, cancer cells vs normal cells, complete medium / selectivity for cancer cells: complete medium (serum-containing)
# Procedure: (§1) Cancer cells HeLa and 4T1 and normal cells HEK293 were cultured using a complete medium (DMEM medium containing 10% fetal bovine serum and 1% penicillin/streptomycin) in a saturated-humidity incubator at 37 °C and 5% CO2, and passaged once every 2 to 3 days.
# (§2) When the cells grew to the logarithmic phase, they were transferred to confocal dishes or 96-well plates: Cells fully grown in a T25 cell culture flask were first washed with PBS, and then digested with 1 mL of trypsin for 1 to 2 minutes (0.25% trypsin for HeLa and 4T1, and 0.025% trypsin for HEK293). After removal of trypsin, fresh medium was added, and the cells were pipetted uniformly and counted, whose density was controlled by the amount of medium added. (1) The cells were inoculated into a confocal glass-bottom culture dish, and was cultured in a 5% CO2 incubator.When the cells grew to a coverage of ~70% they were used for confocal imaging experiments. (2) The cells were inoculated into a low-attachment U-bottom 96-well plate, and when the diameter of the cell spheroids reached ~800 μm, the cell spheroids were used for antitumor evaluation.
# After three groups of cancer cells HeLa and 4T1 and normal cells HEK293 individually grown on confocal glass-bottom culture dishes prepared in Test example 1 were washed with PBS, one group was incubated in complete medium (serum-containing) with 1 μM of the compound synthesized in Example 1 in the dark for 30 min, and the second group was incubated in complete medium with 1 μM of (E)-4-(2-(5-methoxy-1H-indol-3-yl)vinyl)-1-n-octylquinolinium iodide in the dark for 30 min, and the third group was incubated in DMEM (serum-free)with 1 μM of the compound synthesized in Example 1 in the dark for 30 min. After PBS washing, all the cells were placed in DMEM, and differences in red fluorescence intensity from the three groups of tumor cells and normal cells were observed and recorded under a laser scanning confocal microscope (EX561 nm, EM600-700 nm).
# HeLa cells = experiment: Verification of how compound enters cells (37 °C vs 4 °C); format: cell-based; settings: 2 μM, 30 min, complete medium; for way of entering cells: 37 °C vs 4 °C
# Procedure: as §1, §2
# After two groups of HeLa cells grown on confocal glass-bottom culture dishes prepared in Test example 1 were washed with PBS, one group was incubated at 37 °C in the dark for 30 min in complete medium with 2 μM of the compound synthesized in Example 1, and the other group was incubated at 4 °C for the same period in complete medium with 2 μM of compound synthesized in Example 1. After PBS washing, the incubated cells were placed in DMEM, and red fluorescence distribution in cells from the two groups was observed and recorded using a laser scanning confocal microscope (EX561 nm, EM600-700 nm).
# After two groups of HeLa cells grown on confocal glass-bottom culture dishes prepared in Test example 1 were washed with PBS, one group was incubated in complete medium with 2 μM of (E)-4-(2-(5-methoxy-1H-indol-3-yl)vinyl)-1-n-octylquinolinium iodide in the dark at 37 °C for 30 min, and the other group was incubated in complete medium solution with 2 μM (E)-4-(2-(5-methoxy-1H-indol-3-yl)vinyl)-1-n-octylquinolinium iodide in the dark at 4 °C for the same period. After PBS washing, the cells were placed in DMEM, and red fluorescence in cells from the two groups was observed and recorded using a laser scanning confocal microscope (EX561 nm, EM600-700 nm).
# bovine serum albumin = bovine serum albumin (Bos taurus, UniProt P02769); experiment: Binding constant with albumin (fluorescence quenching, double-logarithmic fitting)
# Procedure: The compound synthesized in Example 1 was added at different concentrations (0 to 15 μM) to PBS containing bovine serum albumin, and then fluorescence spectra of bovine serum albumin were measured using a fluorescence spectrometer (280 nm EX).
# HEK293 cell spheroids = experiment: Changes in growth of HEK293 cell spheroids; format: cell-based; settings: 10 μM, 24 h
# Procedure: as §1
# as §2, with “evaluation. […]” for “evaluation.”
# HeLa cell spheroids = experiment: Changes in growth of HeLa cell spheroids; format: cell-based; settings: 10 μM, 24 h
# Procedure: as §1, §2
# After two groups of HEK293 cell spheroids and two groups of HeLa cell spheroids prepared in Test example 1 were photographed under a microscope, one group of HEK293 and HeLa cell spheroids was incubated in a complete medium containing 10 μM of the compound synthesized in Example 1 as an experimental administration group, and the other group of HEK293 and HeLa cell spheroids was incubated in a complete medium containing the same volume of DMSO as a blank control. After 24 h, photographs were taken again using the microscope to observe changes in morphology and size of the cell spheroids.
# HeLa cells (autophagy) = experiment: Imaging of autophagic vacuoles and autophagosomes in HeLa cells (Cell-Tracker Green CMFDA); format: cell-based; settings: 10 μM, 90 min
# Procedure: as §1, §2
# Two groups of HeLa cells grown on confocal glass-bottom culture dishes prepared in Test example 1 were firstly washed with PBS. Then one group was incubated in the dark for 90 min in complete medium with 10 μM of the compound synthesized in Example 1, and the other group was incubated in complete medium with an equal amount of DMSO as a blank control sample. Subsequently, the cells were incubated in DMEM with 5 μM green live-cell tracking probe (Cell-Tracker Green CMFDA) for 30 min. After PBS washing, the cells were placed in DMEM and observed under a laser scanning confocal microscope. The fluorescence distribution of Cell-Tracker Green in cells from the two groups was recorded.
# After HeLa cells grown on confocal glass-bottom culture dish prepared in Test example 1 was washed with PBS, they were incubated in complete medium with 10 μM of the compound synthesized in Example 2 in the dark for 90 min, and then incubated in DMEM with 5 μM green live-cell tracking probe (Cell-Tracker Green CMFDA) in the dark for 30 min followed by PBS washing. The cells were placed in DMEM and observed under a laser scanning confocal microscope. The fluorescence distribution of Cell-Tracker Green in the cells was recorded.
# [2] = system: HeLa cells (mitochondria and lysosomes); experiment: Localization observation in HeLa cells (colocalization with MitoTracker Green and LysoBrite NIR); format: cell-based; settings: 2 μM, 30 min, confocal colocalization
# Procedure: as §1
# as §2, with “evaluation. […]” for “evaluation.”
# [3] = system: HeLa cells (fusion of mitochondria and lysosomes); experiment: Fusion of mitochondria and lysosomes in HeLa cells (MitoTracker Green / LysoBrite NIR); format: cell-based; settings: compound 10 μM in complete medium, ~5 h
# Procedure: as §1
# as §2, with “(2) The cells were inoculated into a low-attachment U-bottom 96-well plate, and when the diameter of the cell spheroids reached ~800 μm, the cell spheroids were used for antitumor evaluation.” left out
# After two groups of HeLa cells grown on confocal glass-bottom culture dishes prepared in Test example 1 were washed with PBS, both were incubated with 1 μM mitochondrial green fluorescent probe (MitoTracker Green) in the dark for 30 min, followed by 30 min incubation with 1 μM lysosomal deep-red probe (LysoBrite NIR). […] The fluorescence distribution of MitoTracker Green and LysoBrite NIR in cells from the two groups was recorded.
# [4] = system: HeLa cells (mitochondrial membrane potential); experiment: Changes in mitochondrial membrane potential of HeLa cells (rhodamine 123); format: cell-based; settings: 10 μM, 30 min, vs DMSO blank control
# Procedure: as §1
# as §2, with “(2) The cells were inoculated into a low-attachment U-bottom 96-well plate, and when the diameter of the cell spheroids reached ~800 μm, the cell spheroids were used for antitumor evaluation.” left out
# Two groups of HeLa cells grown on confocal glass-bottom culture dishes prepared in Test example 1 were both incubated with 5 μM rhodamine 123 in darkness in a CO2 incubator for 30 min and then washed with PBS. […] After PBS washing, the cells were observed under a laser scanning confocal microscope, and the changes of the fluorescence brightness from rhodamine 123 in the two groups of cells were recorded.
# [5] = system: HeLa cells (lysosomal pH); experiment: Changes in lysosomal pH of HeLa cells (LysoSensor Green DND-189); format: cell-based; settings: 10 μM, 30 min, vs DMSO blank control
# Procedure: as §1
# as §2, with “(2) The cells were inoculated into a low-attachment U-bottom 96-well plate, and when the diameter of the cell spheroids reached ~800 μm, the cell spheroids were used for antitumor evaluation.” left out
# Two groups of HeLa cells grown on confocal glass-bottom culture dishes prepared in Test example 1 were incubated with 2 μM lysosomal green fluorescent probe (LysoSensor Green DND-189) in the dark for 30 min in a CO2 incubator, and then washed with PBS. […] The changes in the fluorescence brightness of LysoSensor Green in cells from the two groups were recorded.
# Sequence of bovine serum albumin (P02769 25-607): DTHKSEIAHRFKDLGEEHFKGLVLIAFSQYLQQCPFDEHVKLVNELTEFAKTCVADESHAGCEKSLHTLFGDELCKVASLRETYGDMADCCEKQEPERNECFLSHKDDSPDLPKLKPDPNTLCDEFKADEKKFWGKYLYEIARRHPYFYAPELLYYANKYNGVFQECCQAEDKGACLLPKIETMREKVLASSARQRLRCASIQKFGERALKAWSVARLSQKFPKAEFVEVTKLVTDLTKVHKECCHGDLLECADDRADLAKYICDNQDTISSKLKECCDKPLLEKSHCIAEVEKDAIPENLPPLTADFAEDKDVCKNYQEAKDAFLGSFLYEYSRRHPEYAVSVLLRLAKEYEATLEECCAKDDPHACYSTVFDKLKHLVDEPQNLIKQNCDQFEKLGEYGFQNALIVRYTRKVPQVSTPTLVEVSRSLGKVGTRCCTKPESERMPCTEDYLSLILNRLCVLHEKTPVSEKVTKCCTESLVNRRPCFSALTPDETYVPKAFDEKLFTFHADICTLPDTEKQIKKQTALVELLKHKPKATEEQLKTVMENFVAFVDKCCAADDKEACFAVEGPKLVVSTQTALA
smiles,measurement,setting,value
"CCCCCCCC[n+]1ccc(/C=C/c2c[nH]c3ccc(OC)cc23)c2ccccc21.[I-] [(E)-4-(2-(5-methoxy-1H-indol-3-yl)vinyl)-1-n-octylquinolinium iodide, reference compound]","fluorescence intensity, cancer cells vs normal cells, complete medium",[1],no significant difference in fluorescence intensity between cancer cells and normal cells
same,selectivity for cancer cells,[1],non-selective for cancer cells
same,way of entering cells,HeLa cells,enters cells mainly via free diffusion rather than active transport
same,red fluorescence at 37 °C compared with 4 °C,HeLa cells,no obvious difference in fluorescence intensity
"CCCCCCCCCCCC[n+]1ccc(/C=C/c2c[nH]c3ccc(OC)cc23)c2ccccc21.[I-] [Example 1, (E)-4-(2-(5-methoxy-1H-indol-3-yl)vinyl)-1-n-dodecylquinolinium iodide]","fluorescence intensity, cancer cells vs normal cells, serum-free",[1]; DMEM (serum-free),almost no difference in fluorescence intensity between cancer cells and normal cells
same,"fluorescence intensity, cancer cells vs normal cells, complete medium",[1],the fluorescence intensity of cancer cells is significantly higher than the fluorescence intensity of normal cells
same,selectivity for cancer cells,[1],high selectivity for cancer cells
same,"entry into cancer cells vs normal cells, serum-free",[1]; serum-free medium,no significant difference
same,fluorescence peak of bovine serum albumin,"bovine serum albumin; PBS, compound 0 to 15 μM, 280 nm EX",gradually decreases
same,affinity for albumin,bovine serum albumin; bovine serum albumin in PBS,high affinity for albumin
same,binding constant with albumin,"bovine serum albumin; bovine serum albumin in PBS, compound 0 to 15 μM, 280 nm EX, double-logarithmic fit",1.35×10^8
same,way of entering cells,HeLa cells,enters cells mainly via active transport
same,red fluorescence at 37 °C compared with 4 °C,HeLa cells,significantly stronger
same,growth inhibition of normal HEK293 cell spheroids,HEK293 cell spheroids,does not cause significant growth inhibition
same,size and shape of HEK293 cell spheroids,HEK293 cell spheroids; vs blank control,do not change significantly compared with the blank control
same,cell debris near HeLa cell spheroids,HeLa cell spheroids,many cell debris appear near the cell spheroids
same,growth of cancerous HeLa cell spheroids,HeLa cell spheroids,significantly inhibits and disrupts the growth
same,size of HeLa cell spheroids,HeLa cell spheroids; vs blank control and before administration,much smaller than those in the blank control as well as than the cell spheroids before drug administration
same,selective killing effect on cancer cells,HeLa cell spheroids; HeLa vs HEK293 cell spheroids,significant selective killing effect on cancer cells
same,autophagy activation / modulation,HeLa cells (autophagy),can activate autophagy
same,generation of vacuoles (autophagic vacuoles/vesicles and autophagosomes) in the cytoplasm,HeLa cells (autophagy),a large number of vacuoles (autophagic vacuoles and autophagosomes) are generated
same,distribution of compound fluorescence in organelles,[2],"distributed in the two organelles, mitochondria and lysosomes"
same,fusion of mitochondria and lysosomes / autophagic flux,[3],can prevent fusion of cellular mitochondria and lysosomes and block autophagic flux
same,overlap of mitochondrial and lysosomal fluorescence,[3],almost no overlap
same,fluorescence of rhodamine 123,[4],greatly weakened
same,mitochondrial membrane potential,[4],decreases significantly
same,fluorescence of LysoSensor Green,[5],greatly weakened
same,lysosomal pH,[5],increases significantly
"CCCCCCCCCCCC[n+]1ccc(/C=C/c2c[nH]c3ccccc23)c2ccccc21.[I-] [Example 2, (E)-4-(2-(1H-indol-3-yl)vinyl)-1-n-dodecylquinolinium iodide]",autophagy activation / modulation,HeLa cells (autophagy),autophagy-modulating activity
same,generation of vacuoles (autophagic vacuoles/vesicles and autophagosomes) in the cytoplasm,HeLa cells (autophagy),a large number of vacuoles (autophagic vesicles and autophagosomes) are generated
same,distribution of compound fluorescence in organelles,[2],"distributed in the two organelles, mitochondria and lysosomes"
